Measurements reported in PMC11909128, “Identification and inhibition of PIN1-NRF2 protein–protein interactions through computational and biophysical approaches” (Scientific Reports, 2025).
Where two headings read alike, the source gives them in different places. Square brackets hold non-standard residues; d marks the D form. Ends that are not written are not given here. Peptide text beside a SMILES is read from it. * marks the point of attachment. fluorescein = fluorescein label at the N-terminus via an aminohexanoic acid (Ahx) linker; FITC = O=C1OC2(c3ccc(O)cc3Oc3cc(O)ccc32)c2ccc(NC(=S)*)cc21; pS = N[C@@H](COP(=O)(O)O)C(=O)O; Ahx = NCCCCCC(=O)O

How the values were obtained:
[1] = biological target: T1, PIN1-NRF2 interaction (Homo sapiens, UniProt Q13526, M1N); assay: FP protein titration: GST-PIN1 titrated to fluorescently labelled NRF2 phospho-peptides in the presence of a fixed concentration of Pintide or PIN1 inhibitor; format: binding; settings: for fold reduction in binding affinity of NRF2_209-222^pSer215 / fold reduction in binding affinity of NRF2_402-415^pSer408 / fold reduction in binding affinity of NRF2_571-584^pSer577: inhibitor 100 µM vs DMSO
T1 construct: host or cells: E. coli BL21 (DE3)
Method: First, GST-PIN1 was titrated to the fluorescently labelled Nrf 2 phospho-peptides (10 nM) in the presence of a fixed concentration of Pintide (10 µM).
In this study, we integrated three different PIN1 inhibitors, including juglone, epigallocatechin gallate (EGCG), and KPT-6566 (Fig. 6a). […] First, GST-PIN1 was titrated to the fluorescently labelled NRF2 phospho-peptides (10 nM) in the presence of a fixed concentration of PIN1 inhibitor (100 µM).
(§1) Fluorescence polarisation experiments were performed at room temperature in a buffer consisting of 5 mM HEPES pH 7.4, 30 mM NaCl, 0.1% v/v Tween20, and 1% v/v DMSO. Corning black, round-bottom, low-binding 384-well plates were utilized for all assays. The NRF2 mimicking fluorescein-labelled peptides, ETTMVPp[…] (NRF2_209-222^pSer215), DMVQPLp[…] (NRF2_402-415^pSer408), and EDGKPYp[…] (NRF2_571-584^pSer577) and the Pintide peptide (WFYpSPFLE) with the optimal binding for the WW domain were commercially purchased from China Peptides. For protein titration studies, GST-PIN1 was titrated to the fluorescently-labelled Nrf 2 phospho-peptides (10 nM) in the presence of a fixed concentration of PIN1 inhibitor (100 μM) or only DMSO as control group. To show PIN1 specificity, only GST protein was used as the control protein group. Fluorescence polarisation was measured using a CLARIOstar® Microplate Reader with an excitation wavelength of λex: 490/20 nm and an emission wavelength of λem: 535/20 nm. The binding affinities (Kd) were determined by sing GraphPad Prism 7 software, and sigmoidal curves were fitted using the equation: Y = Bottom + (Top − Bottom)/(1 + 10^((Log app.Kd − X) * HillSlope)), where Y represents the mP value, X denotes the log protein concentration, and Top and Bottom represent the plateaus in mP. Moreover, for the ligand displacement assays, the inhibitors were titrated to a fixed concentration of GST-PIN1 (1 μM) and fluorescently labelled NRF2 peptide (10 nM). The change in polarisation values were normalised to the DMSO control group and presented as percentage change.

[2] = tested on: breast cancer cells; design: method as in PMID 28598431; settings: breast cancer cells treated with KPT-6566; cited from earlier work
[3] = biological target: T2, PIN1 (Homo sapiens, UniProt Q13526); assay: Denaturing mass spectrometry of PIN1 incubated with KPT-6566 (covalent modification); settings: PIN1 10 µM, KPT-6566 30 µM, 1 h
Method: KPT-6566 was previously shown to covalently modify the PIN1 PPIase domain at Cys113 via an unusual disulfide exchange of the sulfonyl-acetate moiety (KPT-65666-A, Fig. 7a)[31]. […] The remaining fragment of KPT-6566 (KPT-6566-B) was reported to be released into the cytoplasm. To verify this, we incubated PIN1 (10 µM) with KPT-6566 (30 µM) and then analysed the results by denaturing mass spectrometry. […] Of this, there was only a barely detectable trace of covalent PIN1 modification with KPT-6566-A (Supplementary Fig. 6a, b). […] Given these findings, the effects of both modes of covalent PIN1 modification by KPT-6566 on NRF2 phospho-peptide binding were subject to computational simulations.
From protein stock, PIN1 was diluted into an assay buffer solution of 50 mM HEPES, 300 mM NaCl pH 7.4 to a final concentration 10 μM and incubated with KPT-6566 (30 μM) for 1 h. Then, the sample was 2-times diluted by using H2O containing 0.1% v/v formic acid solution to give a final protein concentration of 0.1–1 mg/mL, and mass spectra were obtained using a Waters Acquity XEVO Q ToF instrument.

[4] = biological target: T2, PIN1; design: method as in PMID 28598431; settings: disulfide exchange of the sulfonyl-acetate moiety at Cys113; cited from earlier work
[5] = biological target: T1, PIN1-NRF2 interaction; assay: FP competition / ligand displacement assay: competitor titrated to fixed GST-PIN1 and fluorescently labelled NRF2 peptide; format: binding
Method: Next, a competition binding assay was used to determine if Pintide competed for PIN1 binding with the NRF2 peptides in a concentration dependent manner. Thus, Pintide was titrated to a fixed concentration of GST-PIN1 (1 µM) and fluorescently labelled NRF2 peptide (10 nM).
Thus, the inhibitors were titrated to a fixed concentration of GST-PIN1 (1 µM) and fluorescently labelled NRF2 peptide (10 nM).
as §1

[6] = biological target: GST-PIN1 (Homo sapiens, UniProt Q13526, M1N); assay: Fluorescence polarisation (FP) direct binding: GST-PIN1 titrated to fluorescently labelled phospho-peptide; design: host or cells: E. coli BL21 (DE3); settings: apparent Kd compared with Pintide
Method: as §1, with “Moreover, for the ligand displacement assays, the inhibitors were titrated to a fixed concentration of GST-PIN1 (1 μM) and fluorescently labelled NRF2 peptide (10 nM). The change in polarisation values were normalised to the DMSO control group and presented as percentage change.” left out

[7] = biological target: T3, GST-PIN1 (UniProt Q13526 1-163, methionine (Met 1) mutated to asparagine (Asn 1)); assay: fluorescence polarisation; GST-PIN1 (or GST) titrated to fluorescently labelled peptide (10 nM); room temperature; 5 mM HEPES pH 7.4, 30 mM NaCl, 0.1% v/v Tween20, 1% v/v DMSO; apparent Kd, variable slope dose-response fit; settings: both partners purified
T3 construct: peptidyl-prolyl cis-trans isomerase PIN1 from the GST-PIN1 plasmid (Addgene #19027); also called GST-tagged PIN1 construct; source: E. coli BL21 (DE3), purified (Glutathione spin columns)
T3 sequence (Q13526 other isoform, or with tags, fused parts or gaps with the stated changes): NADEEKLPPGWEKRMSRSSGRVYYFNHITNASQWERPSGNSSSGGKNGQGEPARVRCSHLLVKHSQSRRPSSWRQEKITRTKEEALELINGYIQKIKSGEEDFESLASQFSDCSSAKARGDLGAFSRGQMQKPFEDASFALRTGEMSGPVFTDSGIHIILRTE

[8] = biological target: T4, GST-PIN1 (UniProt Q13526 1-163, methionine (Met 1) mutated to asparagine (Asn 1)); assay: FP; 10 uM Pintide
T4 sequence (Q13526 other isoform, or with tags, fused parts or gaps methionine (Met 1) mutated to asparagine (Asn 1)): as the sequence (Q13526 other isoform, or with tags, fused parts or gaps with the stated changes) above

[9] = biological target: T4, GST-PIN1; assay: FP; 100 uM juglone
[10] = biological target: T4, GST-PIN1; assay: FP; 100 uM KPT-6566
[11] = biological target: T4, GST-PIN1; assay: FP; 100 uM EGCG
[12] = biological target: T3, GST-PIN1; assay: fluorescence polarisation; competition: Pintide titrated to GST-PIN1 (1 uM) and fluorescently labelled NRF2(402-415) pSer408 peptide (10 nM); settings: both partners purified
[13] = biological target: T3, GST-PIN1; assay: fluorescence polarisation; competition: Pintide titrated to GST-PIN1 (1 uM) and fluorescently labelled NRF2(209-222) pSer215 peptide (10 nM); settings: both partners purified
[14] = biological target: T3, GST-PIN1; assay: fluorescence polarisation; competition: Pintide titrated to GST-PIN1 (1 uM) and fluorescently labelled NRF2(571-584) pSer577 peptide (10 nM); settings: both partners purified
[15] = GST-PIN1 1 µM, labelled NRF2_402-415^pSer408 10 nM, read-out: IC50, inhibition of NRF2_402-415^pSer408 binding to PIN1
[16] = GST-PIN1 1 µM, labelled NRF2_571-584^pSer577 10 nM, read-out: IC50, inhibition of NRF2_571-584^pSer577 binding to PIN1

T1 sequence (Q13526 whole entry M1N): as the sequence (Q13526 other isoform, or with tags, fused parts or gaps with the stated changes) above
T2 sequence (Q13526 whole entry, the tested form may be a part): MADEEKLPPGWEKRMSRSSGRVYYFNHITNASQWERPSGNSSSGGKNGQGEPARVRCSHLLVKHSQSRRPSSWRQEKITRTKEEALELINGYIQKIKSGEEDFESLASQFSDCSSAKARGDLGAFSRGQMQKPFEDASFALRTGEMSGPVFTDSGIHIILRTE
Chain of GST-PIN1 (Homo sapiens, UniProt Q13526, M1N) (Q13526 whole entry M1N): as the sequence (Q13526 other isoform, or with tags, fused parts or gaps with the stated changes) above

Molecule: O=C(O[C@@H]1Cc2c(O)cc(O)cc2O[C@@H]1c1cc(O)c(O)c(O)c1)c1cc(O)c(O)c(O)c1 [EGCG, epigallocatechin gallate]
- inhibitory effect on the binding of any NRF2 phospho-peptide to PIN1 ([1]; inhibitor 100 µM, all three NRF2 phospho-peptides): did not show any inhibitory effect

Molecule: CC(C)(C)c1ccc(S(=O)(=O)/N=C2\C=C(SCC(=O)O)C(=O)c3ccccc32)cc1 [KPT-6566]
- NRF2-mediated oxidative stress elements (microarray analysis) [2]: upregulation
- NRF2 downstream enzymes cFOS, HO1, NQO1, TXNRD1, DNAJB9 at the mRNA level (quantitative RT-PCR) [2]: upregulation
- extent of covalent PIN1 modification [3]: only a small amount of covalent PIN1 modification was observed
- mass increase of the major modified PIN1 species [3]: 353 Da
- fold reduction in binding affinity of NRF2_209-222^pSer215 [1]: 25 fold
- fold reduction in binding affinity of NRF2_402-415^pSer408 [1]: 92 fold
- fold reduction in binding affinity of NRF2_571-584^pSer577 [1]: 149 fold
- PIN1 mass increase [4]: 90 Da
- IC50 [5, 15]: 300 nM
- IC50 [5, 16]: 1400 nM
- fold more potent than Juglone ([5]; IC50 comparison, ligand displacement assay): ~ 20 fold
- IC50 ([5]; range over the three NRF2 phospho-peptides, read-out: IC50 range, inhibitory effect on PIN1-NRF2 interaction): 300 to 1400 nM

Molecule: CSCC[C@H](NC(=O)[C@@H](NC(=O)[C@@H](NC(=O)[C@H](CCC(=O)O)NC(=O)CCCCCNC(=S)Nc1ccc2c(c1)C(=O)OC21c2ccc(O)cc2Oc2cc(O)ccc21)[C@@H](C)O)[C@@H](C)O)C(=O)N[C@H](C(=O)N1CCC[C@H]1C(=O)N[C@@H](COP(=O)(O)O)C(=O)N1CCC[C@H]1C(=O)N[C@@H](CCC(=O)O)C(=O)N[C@@H](C)C(=O)N[C@@H](CCCCN)C(=O)N[C@@H](CC(C)C)C(=O)N[C@H](C(=O)N[C@@H](CCC(=O)O)C(=O)O)[C@@H](C)O)C(C)C [NRF2_209-222^pSer215, ETTMVPpSPEAKLTE] ({FITC-Ahx}-ETTMVP[pS]PEAKLTE-OH; N-terminus assumed)
- fold weaker interaction with PIN1 than the optimised Pintide ligand [6]: tenfold

Molecule: CSCC[C@H](NC(=O)[C@H](CC(=O)O)NC(=O)CCCCCNC(=S)Nc1ccc2c(c1)C(=O)OC21c2ccc(O)cc2Oc2cc(O)ccc21)C(=O)N[C@H](C(=O)N[C@@H](CCC(N)=O)C(=O)N1CCC[C@H]1C(=O)N[C@@H](CC(C)C)C(=O)N[C@@H](COP(=O)(O)O)C(=O)N1CCC[C@H]1C(=O)N[C@@H](CO)C(=O)N[C@@H](CCC(N)=O)C(=O)NCC(=O)N[C@@H](CCC(N)=O)C(=O)N[C@@H](CO)C(=O)N[C@H](C(=O)O)[C@@H](C)O)C(C)C [NRF2_402-415^pSer408, DMVQPLpSPSQGQST] ({FITC-Ahx}-DMVQPL[pS]PSQGQST-OH; N-terminus assumed)
- fold weaker interaction with PIN1 than the optimised Pintide ligand [6]: ~ 13 fold

Molecule: O=C1C=CC(=O)c2c(O)cccc21 [juglone]
- fold reduction in binding affinity of NRF2_209-222^pSer215 [1]: 8 fold
- fold reduction in binding affinity of NRF2_402-415^pSer408 [1]: 18 fold
- fold reduction in binding affinity of NRF2_571-584^pSer577 [1]: sixfold
- IC50 ([5]; GST-PIN1 1 µM, labelled NRF2_209-222^pSer215 10 nM, read-out: IC50, inhibition of NRF2_209-222^pSer215 binding to PIN1): 26800 nM
- IC50 [5, 15]: 20000 nM
- IC50 [5, 16]: 30000 nM

B1: Pintide, fluorescently labelled (peptide)
peptide: WFY[pS]PFLE
modifications: also: fluorescently labelled, site not given here
notes: source: synthetic peptide, bought: China Peptides
- Kd [7]: 17 ± 3 nM

B2: fluorescein-labelled NRF2(402-415) pSer408 phospho-peptide (peptide)
peptide: {fluorescein-Ahx}-DMVQPL[pS]PSQGQST-OH
notes: NRF2 (nuclear factor erythroid 2-related factor 2), residues 402-415, linker between the Neh6 and Neh1 domains; source: synthetic peptide, bought: China Peptides
- Kd [8]: 1590 nM
- Kd [7]: 221 ± 40 nM
- Kd [9]: 3900 nM
- Kd [10]: 20200 nM

B3: fluorescein-labelled NRF2(571-584) pSer577 phospho-peptide (peptide)
peptide: {fluorescein-Ahx}-EDGKPY[pS]PSEYDLQ-OH
notes: NRF2 (nuclear factor erythroid 2-related factor 2), residues 571-584, in the Neh3 domain; see recheck for residue 582; source: synthetic peptide, bought: China Peptides
- Kd [8]: 1760 nM
- Kd [7]: 168 ± 25 nM
- Kd [9]: 1000 nM
- Kd [11]: 200 nM
- Kd [10]: 25300 nM

B4: Pintide (competitor, not labelled) (peptide)
peptide: WFY[pS]PFLE
notes: also called WW domain-selective Pintide; source: synthetic peptide, bought: China Peptides
- IC50 [12]: 6800 nM
- IC50 [13]: 5700 nM
- IC50 [14]: 6700 nM

B5: fluorescein-labelled NRF2(209-222) pSer215 phospho-peptide (peptide)
peptide: {fluorescein-Ahx}-ETTMVP[pS]PEAKLTE-OH
notes: NRF2 (nuclear factor erythroid 2-related factor 2), residues 209-222, in the Neh7 domain; also called Peptide 1; source: synthetic peptide, bought: China Peptides
- Kd [8]: 1070 nM
- Kd [7]: 157 ± 15 nM
- Kd [9]: 1300 nM
- Kd [10]: 4040 nM
